Data set [1] concerns the target Nicotinamide phosphoribosyltransferase (Homo sapiens, UniProt P43490).
The test system of data set [2] is A2780. The data set can be described thus: cells. As to conditions: Homo sapiens, A2780, 72 h.
The nature of data set [3]: Metabolic stability in human liver microsomes assessed as compound remaining at 1 uM after 30 mins LC-MS analysis. As to conditions: liver microsomes, read-out: Stability. It is filed as ADME, Microsome.
A short description of data set [4]: Metabolic stability in mouse liver microsomes assessed as compound remaining at 1 uM after 30 mins LC-MS analysis. In kind it is ADME, Microsome. The settings on record: liver microsomes, read-out: Stability.

The structures appear in SMILES notation.

Chain of Nicotinamide phosphoribosyltransferase (P43490 whole entry): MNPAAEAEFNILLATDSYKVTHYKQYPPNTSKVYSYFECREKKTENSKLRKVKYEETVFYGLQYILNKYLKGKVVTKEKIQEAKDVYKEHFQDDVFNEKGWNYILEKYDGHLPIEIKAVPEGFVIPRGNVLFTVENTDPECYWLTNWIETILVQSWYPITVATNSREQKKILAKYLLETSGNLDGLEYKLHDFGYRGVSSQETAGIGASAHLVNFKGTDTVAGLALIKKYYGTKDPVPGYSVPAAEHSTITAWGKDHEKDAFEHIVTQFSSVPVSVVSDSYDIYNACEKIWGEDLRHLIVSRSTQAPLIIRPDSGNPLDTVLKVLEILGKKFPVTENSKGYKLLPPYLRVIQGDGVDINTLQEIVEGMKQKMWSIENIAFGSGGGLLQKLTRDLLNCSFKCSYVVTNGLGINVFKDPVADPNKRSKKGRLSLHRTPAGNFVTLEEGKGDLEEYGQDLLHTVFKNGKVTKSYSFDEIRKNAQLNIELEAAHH

Regarding `O=C(NCc1ccc(S(=O)(=O)c2ccccc2)cc1)c1ccc2nncn2c1`, the IC50 in data set [1] is 370 nM; in data set [2] it was > 10000 nM. Further, the remaining at 0.5 h, 1 µM is 96% in data set [3] and 47% in data set [4].

On to `O=C(NCCc1ccc(S(=O)(=O)c2ccccc2)cc1)c1cc2cnccc2[nH]1`, for which the results for the 50% inhibitory concentration (IC50) in data set [1] and in data set [2] were 970 nM and 9100 nM, respectively. For the same compound, the remaining at 0.5 h, 1 µM stood at 64% in data set [3] and 31% in data set [4].

As to `O=C(NCc1ccc(S(=O)(=O)c2ccccc2)cc1)c1ccc2cnccc2c1`, the IC50 in data set [1] and in data set [2] was > 10000 nM each time. For the same compound, the remaining at 0.5 h, 1 µM in data set [3] came out at 31%; in data set [4] it was 10%.

Consider `O=C(NCc1ccc(S(=O)(=O)c2ccc(F)c(F)c2)cc1)c1cc2cnccc2[nH]1`, for which the IC50 in data set [1] came out at 10 nM; in data set [2], 14 nM. The remaining at 0.5 h, 1 µM in data set [3] came out at 100%; in data set [4], 58%.

In the case of `O=C(NCc1ccc(S(=O)(=O)c2cccnc2)cc1)c1cc2cnccc2[nH]1`, the IC50 in data set [2] was determined as 48 nM. Also, the remaining at 0.5 h, 1 µM in data set [3] stood at 75%; in data set [4], 20%.

For `O=C(NCc1ccc(S(=O)(=O)c2ccccc2)cc1)c1cc2ccncc2o1`, the remaining at 0.5 h, 1 µM in data set [3] was found to be 86%; in data set [4], 30%.

Compound `O=C(NCc1ccc(S(=O)(=O)c2ccccc2)cc1)c1nc2cnccc2[nH]1` had an IC50 in data set [2] of 5400 nM. Besides, the remaining at 0.5 h, 1 µM is 73% in data set [3] and 7.3% in data set [4].

`O=C(NCc1ccc(S(=O)(=O)N2CCCCC2)cc1)c1cc2cnccc2[nH]1` returned an IC50 in data set [2] of 10 nM. Further, the values for the remaining at 0.5 h, 1 µM in data set [3] and in data set [4] were 44% and 1.9%, respectively.

As to `O=C(NCc1ccc(S(=O)(=O)c2ccccc2)cc1)c1c[nH]c2ccncc12`, the IC50 in data set [2] was determined as 2100 nM. Moreover, the remaining at 0.5 h, 1 µM in data set [3] was > 99%; in data set [4], 45%.

Turning to `O=C(NCc1ccc(S(=O)(=O)c2ccccc2)cc1)c1cc2ccncc2s1`, the IC50 in data set [1] stood at 7 nM; in data set [2], 14 nM. Also, the remaining at 0.5 h, 1 µM in data set [3] turned out to be 48%; in data set [4] it was 21%.

As to `O=C(NCc1ccc(S(=O)(=O)N2CCCCC2)cc1)c1ccn2cncc2c1`, the figures for the IC50 in data set [1] and in data set [2] were 1700 nM and > 10000 nM, respectively. The remaining at 0.5 h, 1 µM is 54% in data set [3] and 1% in data set [4].

With `O=C(NCc1ccc(S(=O)(=O)N2CCCCC2)cc1)c1ccn2ccnc2c1`, the IC50 in data set [1] was 1800 nM; in data set [2], > 10000 nM.

Take `O=C(NCc1ccc(S(=O)(=O)N2CCCCC2)cc1)c1cc2ccncc2s1`: the IC50 was 11 nM in data set [1] and 6 nM in data set [2]. Further, the figures for the remaining at 0.5 h, 1 µM in data set [3] and in data set [4] were 4.4% and 0.2%, respectively.

Regarding `O=C(NCc1ccc(S(=O)(=O)c2ccccc2)cc1)c1ccc2ncncc2c1`, the figures for the IC50 in data set [1] and in data set [2] were 1900 nM and > 10000 nM, respectively. For the same compound, the remaining at 0.5 h, 1 µM in data set [3] was found to be 24%; in data set [4], 3.7%.

As for `O=C(NCc1ccc(S(=O)(=O)N2CCCCC2)cc1)c1cc2cnccc2o1`, the results for the IC50 in data set [1] and in data set [2] were 140 nM and 1500 nM, respectively. Moreover, the figures for the remaining at 0.5 h, 1 µM in data set [3] and in data set [4] were 46% and 4.6%, respectively.

In the case of `O=C(NCc1ccc(S(=O)(=O)c2cccc(C(F)(F)F)c2)cc1)c1cnc2nccn2c1`, the IC50 in data set [1] turned out to be 1 nM; in data set [2], 2 nM. Moreover, the remaining at 0.5 h, 1 µM in data set [3] was 41%; in data set [4], 27%.

Turning to `O=C(NCc1ccc(S(=O)(=O)c2cc(F)cc(F)c2)cc1)c1cc2ccncc2o1`, the results for the remaining at 0.5 h, 1 µM in data set [3] and in data set [4] were 77% and 12%, respectively.

As for `O=C(NCc1ccc(S(=O)(=O)c2ccccc2)cc1)c1ccc2cncn2c1`, the IC50 is 1500 nM in data set [1] and > 10000 nM in data set [2]. Moreover, the remaining at 0.5 h, 1 µM in data set [3] is 65%; in data set [4], 1.7%.

As for `O=C(NCc1ccc(S(=O)(=O)N2CCCCC2)cc1)c1cc2ccncc2o1`, the IC50 in data set [2] was determined as 29 nM. The remaining at 0.5 h, 1 µM in data set [3] came to 56%; in data set [4], 0.14%.

As to `O=C(NCc1ccc(S(=O)(=O)c2ccccc2)cc1)c1ccc2nccn2c1`, the IC50 was 18 nM in data set [1] and 13 nM in data set [2]. Besides, the remaining at 0.5 h, 1 µM in data set [3] is 77%; in data set [4], 18%.

Regarding `O=C(NCc1ccc(S(=O)(=O)c2ccc(C(F)(F)F)cc2)cc1)c1cc2cnccc2[nH]1`, the IC50 in data set [1] stood at 16 nM; in data set [2], 26 nM. For the same compound, the values for the remaining at 0.5 h, 1 µM in data set [3] and in data set [4] were 82% and 87%, respectively.

For `O=C(NCc1ccc(S(=O)(=O)c2ccc(N3CCOCC3)nc2)cc1)c1cc2ccncc2s1`, the IC50 in data set [1] amounted to 3 nM; in data set [2] it was 1 nM. For the same compound, the remaining at 0.5 h, 1 µM in data set [3] and in data set [4] was 23% throughout.

Regarding `O=C(NCc1ccc(S(=O)(=O)N2CCCCC2)cc1)c1ccc2nccn2c1`, the half-inhibitory concentration (IC50) in data set [1] is 28 nM; in data set [2] it was 6 nM. Further, the remaining at 0.5 h, 1 µM was 57% in data set [3] and 0.28% in data set [4].

In the case of `O=C(NCc1ccc(S(=O)(=O)N2CCCCC2)cc1)c1ccc2nc[nH]c2c1`, the IC50 in data set [1] was 310 nM; in data set [2], > 10000 nM. Also, the remaining at 0.5 h, 1 µM amounted to 53% in data set [3] and 16% in data set [4].

On to `O=C(NCc1ccc(S(=O)(=O)c2cccc(C(F)(F)F)c2)cc1)c1ccc2nccn2c1`, for which the IC50 in data set [1] was 8 nM; in data set [2], 2 nM. The remaining at 0.5 h, 1 µM in data set [3] is 26%; in data set [4], 17%.

Consider `O=C(NCc1ccc(S(=O)(=O)c2ccccc2C(F)(F)F)cc1)c1cc2cnccc2[nH]1`, for which the IC50 in data set [1] came to 24 nM; in data set [2], 25 nM. For the same compound, the values for the remaining at 0.5 h, 1 µM in data set [3] and in data set [4] were 52% and 41%, respectively.

`O=C(NCc1ccc(S(=O)(=O)c2ccccc2)cc1)c1cc2cnccc2[nH]1`: the remaining at 0.5 h, 1 µM turned out to be 75% in data set [3] and 54% in data set [4].

Consider `O=C(NCc1ccc(S(=O)(=O)c2cccc(F)c2)cc1)c1cc2cnccc2[nH]1`, for which the figures for the IC50 in data set [1] and in data set [2] were 5 nM and 11 nM, respectively. For the same compound, the values for the remaining at 0.5 h, 1 µM in data set [3] and in data set [4] were 79% and 44%, respectively.

On to `O=C(NCc1ccc(S(=O)(=O)c2ccccc2)cc1)c1cc(-c2cccnc2)[nH]n1`, for which the figures for the IC50 in data set [1] and in data set [2] were 43 nM and > 10000 nM, respectively. Also, the remaining at 0.5 h, 1 µM in data set [3] worked out at 67%; in data set [4], 42%.

Turning to `O=C(NCc1ccc(S(=O)(=O)c2ccccc2)cc1)c1cn2ccnc2cn1`, the figures for the IC50 in data set [1] and in data set [2] were 150 nM and > 10000 nM, respectively. In addition, the figures for the remaining at 0.5 h, 1 µM in data set [3] and in data set [4] were 87% and 13%, respectively.

Consider `O=C(NCc1ccc(S(=O)(=O)c2ccccc2)cc1)c1ccc2ccncc2c1`, for which the IC50 was 610 nM in data set [1] and > 10000 nM in data set [2]. Also, the remaining at 0.5 h, 1 µM in data set [3] stood at 46%; in data set [4] it was 3.3%.

For the compound `O=C(NCc1ccc(S(=O)(=O)c2ccccc2)cc1)c1cc(-c2cccnc2)no1`, the IC50 in data set [1] is 41 nM; in data set [2], > 10000 nM. In addition, the remaining at 0.5 h, 1 µM in data set [3] amounted to 69%; in data set [4], 66%.

As for `O=C(NCc1ccc(S(=O)(=O)c2ccc(F)cc2)cc1)c1cc2cnccc2[nH]1`, the IC50 in data set [1] is 17 nM; in data set [2], 16 nM. Further, the remaining at 0.5 h, 1 µM in data set [3] turned out to be 91%; in data set [4], 72%.

In the case of `O=C(NCc1ccc(S(=O)(=O)c2ccccc2)cc1)c1cc2ncccc2s1`, the figures for the IC50 in data set [1] and in data set [2] were 400 nM and > 10000 nM, respectively. Also, the remaining at 0.5 h, 1 µM in data set [3] came out at 81%; in data set [4] it was 1.6%.

Turning to `CC(NC(=O)c1cc2cnccc2[nH]1)c1ccc(S(=O)(=O)N2CCCCC2)cc1` (stereo unspecified), the IC50 in data set [1] and in data set [2] was > 10000 nM throughout. Besides, the figures for the remaining at 0.5 h, 1 µM in data set [3] and in data set [4] were 34% and 0.65%, respectively.

For `Cn1c(C(=O)NCc2ccc(S(=O)(=O)c3ccccc3)cc2)cc2cnccc21`, the half-maximal inhibitory concentration (IC50) in data set [2] was > 10000 nM. Further, the remaining at 0.5 h, 1 µM was found to be 78% in data set [3] and 34% in data set [4].

With `Cc1cccc(S(=O)(=O)c2ccc(CNC(=O)c3cc4cnccc4[nH]3)cc2)c1`, the IC50 in data set [1] was found to be 8 nM; in data set [2] it was 4 nM. Moreover, the remaining at 0.5 h, 1 µM came to 49% in data set [3] and 32% in data set [4].

Regarding `O=C(NCc1ccc(S(=O)(=O)c2ccccc2)cc1)c1cnc2nccn2c1`, the IC50 in data set [2] worked out at 68 nM. The results for the remaining at 0.5 h, 1 µM in data set [3] and in data set [4] were 60% and 30%, respectively.

Consider `O=C(NCc1ccc(S(=O)(=O)N2CCCCC2)cc1)c1cnc2nccn2c1`, for which the IC50 in data set [1] came out at 3 nM; in data set [2], 130 nM. The remaining at 0.5 h, 1 µM in data set [3] was 64%; in data set [4], 0.28%.

For `Cc1ccccc1S(=O)(=O)c1ccc(CNC(=O)c2cc3cnccc3[nH]2)cc1`, the IC50 in data set [1] worked out at 12 nM; in data set [2], 13 nM. Besides, the remaining at 0.5 h, 1 µM in data set [3] was 48%; in data set [4], 15%.

Turning to `O=C(Nc1ccc(S(=O)(=O)N2CCCCC2)cc1)c1cc2cnccc2[nH]1`, the IC50 in data set [1] and in data set [2] was > 10000 nM throughout.

For `O=C(NCc1ccc(S(=O)(=O)c2ccccc2)cc1)c1nc2ccncc2s1`, the values for the IC50 in data set [1] and in data set [2] were 210 nM and > 10000 nM, respectively. The remaining at 0.5 h, 1 µM came out at 68% in data set [3] and 26% in data set [4].

The values above are taken from ChEMBL document CHEMBL2417368, “Structure-based discovery of novel amide-containing nicotinamide phosphoribosyltransferase (nampt) inhibitors” (J Med Chem, 2013).
